Measurements published in patent US9248119B2, “Modified release dosage forms of xanthine oxidoreductase inhibitor or xanthine oxidase inhibitors” (Takeda Pharmaceuticals U.S.A., Inc., priority 2010, dated 2016).
Where two headings read alike, the source gives them in different places.

Key:
clinical [1] = conditions: human, in vivo; for Vd/F: Vss/F
Method: The development of the previously described embodiments resulted from a long drug development process. […] The study was also designed to assess the pharmacokinetic and pharmacodynamic profiles of multiple daily oral doses over a range of doses and ranges, including both once-daily and twice-daily administration.
(§1) Samples were analyzed by high performance liquid chromatography.

[2] = cited from earlier work; for fu (free fraction in plasma): in %
clinical [3] = conditions: human, plasma, po
uric acid = experiment: Pharmacodynamics in Phase 1 dose escalation study: uric acid levels; type: in vivo, human
Method: as §1

[4] = normal patients, 14C, nominal 1 μg/mL
[5] = patients with severe renal impairment

Compound: Cc1nc(-c2ccc(OCC(C)C)c(C#N)c2)sc1C(=O)O [Febuxostat, 2-[3-cyano-4-(2-methylpropoxy)phenyl]-4-methylthiazole-5-carboxylic acid]
- Vd (clinical [1]): ~0.7 L/kg
- half-life (clinical [1]): ~6 h
- Cmax (clinical [1]; 10 mg): 399.5 ng/mL
- Tmax (clinical [1]; 10 mg): 0.70 h
- Vss/F (clinical [1]; 10 mg): 42.7 L
- AUC (clinical [1]; 10 mg, AUC (AUC24)): 950 ng·h/mL
- AUC(0-inf) (clinical [1]; 10 mg): 727 ng·h/mL
- Cmax (clinical [1]; 10 mg, Cmax): 336 ng/mL
- Vd/F (clinical [1]; 10 mg): 38.2 L
- Tmax (clinical [1]; 10 mg, tmax): 0.99 h
- Cmax (clinical [1]; 20 mg): 934.2 ng/mL
- Vss/F (clinical [1]; 20 mg): 33.3 L
- AUC (clinical [1]; 20 mg, AUC (AUC24)): 2110 ng·h/mL
- AUC(0-inf) (clinical [1]; 20 mg): 2180 ng·h/mL
- Cmax (clinical [1]; 20 mg, Cmax): 1110 ng/mL
- Vd/F (clinical [1]; 20 mg): 29.2 L
- Tmax (clinical [1]; 20 mg, tmax): 1.06 h
- AUC (AUC12) (clinical [1]; 30 mg): 3308.3 ng·h/mL
- AUC (AUC∞) (clinical [1]; 30 mg): 2816.9 ng·h/mL
- AUC (clinical [1]; 30 mg, AUC (AUC12)): 2910 ng·h/mL
- AUC (clinical [1]; 30 mg, AUC (AUC24)): 2570 ng·h/mL
- AUC(0-inf) (clinical [1]; 30 mg): 2550 ng·h/mL
- Cmax (clinical [1]; 30 mg, Cmax): 1120 ng/mL
- Cmax (clinical [1]; 40 mg): 1822.1 ng/mL
- Vss/F (clinical [1]; 40 mg): 49.5 L
- AUC (clinical [1]; 40 mg, AUC (AUC24)): 4300 ng·h/mL
- AUC(0-inf) (clinical [1]; 40 mg): 3980 ng·h/mL
- Cmax (clinical [1]; 40 mg, Cmax): 1530 ng/mL
- Vd/F (clinical [1]; 40 mg): 48.7 L
- Tmax (clinical [1]; 40 mg, tmax): 1.44 h
- Cmax (clinical [1]; 50 mg): 1791.7 ng/mL
- Vss/F (clinical [1]; 50 mg): 59.1 L
- AUC (clinical [1]; 50 mg, AUC (AUC24)): 4380 ng·h/mL
- AUC(0-inf) (clinical [1]; 50 mg): 4410 ng·h/mL
- Cmax (clinical [1]; 50 mg, Cmax): 1970 ng/mL
- Vd/F (clinical [1]; 50 mg): 43.2 L
- Tmax (clinical [1]; 50 mg, tmax): 0.78 h
- Cmax (clinical [1]; 70 mg): 2689.9 ng/mL
- Vss/F (clinical [1]; 70 mg): 54.1 L
- AUC (clinical [1]; 70 mg, AUC (AUC24)): 6950 ng·h/mL
- AUC(0-inf) (clinical [1]; 70 mg): 6930 ng·h/mL
- Cmax (clinical [1]; 70 mg, Cmax): 3080 ng/mL
- Vd/F (clinical [1]; 70 mg): 41.6 L
- Tmax (clinical [1]; 70 mg, tmax): 1 h
- Cmax (clinical [1]; 90 mg): 4058.9 ng/mL
- Vss/F (clinical [1]; 90 mg): 63.7 L
- AUC (clinical [1]; 90 mg, AUC (AUC24)): 9650 ng·h/mL
- AUC(0-inf) (clinical [1]; 90 mg): 9090 ng·h/mL
- Cmax (clinical [1]; 90 mg, Cmax): 3480 ng/mL
- Vd/F (clinical [1]; 90 mg): 56.7 L
- Tmax (clinical [1]; 90 mg, tmax): 0.95 h
- Cmax (clinical [1]; 120 mg): 5307.6 ng/mL
- Vss/F (clinical [1]; 120 mg): 55.1 L
- AUC (clinical [1]; 120 mg, AUC (AUC24)): 12000 ng·h/mL
- AUC(0-inf) (clinical [1]; 120 mg): 11300 ng·h/mL
- Cmax (clinical [1]; 120 mg, Cmax): 4470 ng/mL
- Vd/F (clinical [1]; 120 mg): 57.8 L
- Tmax (clinical [1]; 120 mg, tmax): 1 h
- Cmax (clinical [1]; 160 mg): 8771.1 ng/mL
- Vss/F (clinical [1]; 160 mg): 36.1 L
- AUC (clinical [1]; 160 mg, AUC (AUC24)): 22300 ng·h/mL
- AUC(0-inf) (clinical [1]; 160 mg): 20700 ng·h/mL
- Cmax (clinical [1]; 160 mg, Cmax): 7300 ng/mL
- Vd/F (clinical [1]; 160 mg): 40.7 L
- Tmax (clinical [1]; 160 mg, tmax): 0.75 h
- Cmax (clinical [1]; 180 mg): 8048.8 ng/mL
- Tmax (clinical [1]; 180 mg): 1.00 h
- Vss/F (clinical [1]; 180 mg): 45.6 L
- AUC (clinical [1]; 180 mg, AUC (AUC24)): 24000 ng·h/mL
- AUC(0-inf) (clinical [1]; 180 mg): 25600 ng·h/mL
- Cmax (clinical [1]; 180 mg, Cmax): 8400 ng/mL
- Vd/F (clinical [1]; 180 mg): 54.6 L
- Tmax (clinical [1]; 180 mg, tmax): 1.07 h
- Cmax (clinical [1]; 240 mg): 11263 ng/mL
- Vss/F (clinical [1]; 240 mg): 31.3 L
- AUC (clinical [1]; 240 mg, AUC (AUC24)): 35000 ng·h/mL
- AUC(0-inf) (clinical [1]; 240 mg): 28300 ng·h/mL
- Cmax (clinical [1]; 240 mg, Cmax): 8390 ng/mL
- Vd/F (clinical [1]; 240 mg): 54.6 L
- Tmax (clinical [1]; 240 mg, tmax): 1.06 h
- oral clearance from the plasma (clinical [1]; po): 7.3 to 15.1 L/h
- Tmax (clinical [1]; po, tmax): ~1 h
- percent free fraction of febuxostat in plasma ([2]; male, female, younger and elderly group of subjects): 0.7±0.1%
- percent fu [2, 4]: 0.9±0.2%
- fu (free fraction in plasma) [2, 4]: 0.9±0.2
- percent fu [2, 5]: 1.2±0.2%
- fu (free fraction in plasma) [2, 5]: 1.2±0.2
- Cmax (clinical [3]; 120 mg): ~3900 ng/mL
- Cmax (clinical [3]; 240 mg): 10200 ng/mL
- lowering uric acid levels (uric acid; 30 mg twice daily compared with once daily 120 mg): as effective
- serum uric acid concentrations (uric acid; IR, once a day, as little as 10 mg, healthy subjects): lowers concentrations of uric acid
- inhibition of uric acid levels (uric acid; in vivo febuxostat concentrations at or above 100 ng/mL (0.1 μg/mL)): ≥ 80%
